Source: article PMC5556071, “ATR inhibition facilitates targeting of leukemia dependence on convergent nucleotide biosynthetic pathways” (Nature Communications, 2017)
Like-named read-outs stand apart in the source and are kept apart here.

Assays:
Assay type in all cases: cell-based, human
Jurkat cells = assay: Cell cycle histograms (propidium iodide flow cytometry); conditions: dCKi 1 µM, 24 h
Description: Cell cycle histograms. Cells were plated at a density of 0.5 x 10^6 cells/mL in respective media or drug treated
media. Following 24 h incubation, cells were harvested and washed twice with PBS twice before staining with
0.5 ml of propidium iodide (Calbiochem, #P3566, 1 µg/mL) solution containing Ribonuclease A and 0.3%
Triton-X 100. The samples were protected from light before acquisition by flow cytometry. […]

CEM cells [1] = assay: Proliferation assay (CellTiter-Glo, 72 h)
Description: Cells were plated in 384-well plates (1000 cells/well for suspension cell lines and 500 cells/well for adherent cell lines in 30 µl volume). Drugs were serially diluted to the desired concentrations and an equivalent volume of DMSO was added to vehicle control. Ten microliter of the 4× diluted drugs were added to each well. Following 72 h incubation, ATP content was measured using CellTiter-Glo reagent according to manufacturer’s instructions (Promega, CellTiter-Glo Luminescent Cell Viability Assay), and analyzed by SpectraMax luminometer (Molecular Devices). IC50 values, concentrations required to inhibit proliferation by 50% compared to DMSO treated cells, were calculated using Prism 6.0 h (Graphpad Software).

CEM cells [2] = assay: Cell cycle analysis of asynchronous cells by flow cytometry (S-phase population, S-phase arrest); conditions: CEM, 24 h
Description: Cell cycle histograms. Cells were plated at a density of 0.5 x 10^6 cells/mL in respective media or drug treated media. Following 24 h incubation, cells were harvested and washed twice with PBS twice before staining with 0.5 ml of propidium iodide (Calbiochem, #P3566, 1 µg/mL) solution containing Ribonuclease A and 0.3% Triton-X 100. The samples were protected from light before acquisition by flow cytometry.
Cell cycle kinetics and cell cycle progression by intracellular detection of DNA-incorporated 5-ethynyl-2-deoxyuridine (EdU). CEM T-ALL cells were plated at a density of 0.5 x 10^6 cells/mL. Cells were pulsed with 10 µM EdU (Invitrogen) for 1 h, washed twice with PBS, and released in fresh media containing 5 µM deoxyribonucleosides, with and without drugs. Cells were collected at different time points following release in fresh media, and then fixed with 4% paraformaldehyde and permeabilized using saponin perm/wash reagent (Invitrogen). Cells were then stained with azide-Alexa Fluor 647 by Click reaction according to manufacturer’s protocol (Invitrogen; Click-iT EdU Flow cytometry kit, #C10634). […]

[3] = Suppl. Fig. 5e, BCX-1777 100 nM

Structure (SMILES) | IC50 (CEM cells [1]) [µM] | fold higher concentration than 3-AP required to induce S-phase arrest (CEM cells [2]) | other results
OC[C@H]1O[C@@H](n2cnc3c2NC=NC[C@H]3O)C[C@@H]1O [dCF, Pentostatin] | – | – | cells in G2/M (Jurkat cells; Suppl. Fig. 4e, dCF 10 µM): 6%; cells in S phase (Jurkat cells; Suppl. Fig. 4e, dCF 10 µM): 11%
O=c1[nH]cnc2c([C@@H]3N[C@H](CO)[C@@H](O)[C@H]3O)c[nH]c12 [BCX-1777, forodesine] | – | – | cells in G2/M (Jurkat cells; [3]): 1.4%; cells in S phase (Jurkat cells; [3]): 40%
Cc1occc(=O)c1[O-].Cc1occc(=O)c1[O-].Cc1occc(=O)c1[O-].[Ga+3] [GaM, gallium maltolate] | 49.8 | 60–100 fold | –
NC(=O)NO [HU, hydroxyurea] | 74.5 | 60–100 fold | –
Cc1cn([C@H]2C[C@H](O)[C@@H](CO)O2)c(=O)[nH]c1=O [dT, thymidine] | – | 60–100 fold | IC50 (CEM cells [1]; Homo sapiens, CCRF-CEM): 159 µM
